Assay results as given in publication PMC2361514 (British Journal of Cancer, 2005).
Read-outs that look alike come from different tables or passages of the source. Marks after values point to notes of the source that are not given here. One block for each compound: values may come before it.

Assays:
[1] = tested on: cancer patients; conditions: cited from earlier work; for MTD: ref Adjei et al, 2003b
[2] = tested on: patients with advanced solid tumours; assay: Phase I trial: dose-limiting toxicities in cycle 1 and maximum tolerated dose; format: in vivo, human
Description: Tipifarnib was supplied by Johnson & Johnson Pharmaceutical Research and Development as 100 mg tablets. […] Tipifarnib was administered orally twice daily, with intervals of 12 h. Tipifarnib was given on days 1–7 of each 21-day cycle. […] To minimise nephrotoxicity, a pre-and posthydration schedule was implemented on day 1. […] At least three patients were treated at each dose level. If DLT occurred in a patient during cycle 1, three additional patients were enrolled in that cohort. MTD was defined at which 2 or more out of 6 patients (2⩾6) experienced DLT. […] These toxicities were only considered DLT if they occurred during the first cycle of treatment. In the case of grade 3–4 haematological toxicities, the dose of gemcitabine was adjusted in the next cycle based on nadir blood cell counts. Dose adjustments were relative to the starting dose of gemcitabine received in the previous cycle of therapy. If the nadir granulocyte count was >500 μl^−1 and the nadir platelet count >50 000 μl^−1, 100% of the planned gemcitabine dose was administered. […] The administration of tipifarnib was discontinued when haematological DLT occurred. After recovery to at least grade 1, tipifarnib was reinstituted at the same dose level in conjunction with a dose modification of gemcitabine. […]

[3] = tested on: patients with advanced solid tumours; assay: Phase I trial: treatment emergent grade 3 or 4 haematological and nonhaematological toxicities (NCI-CTC v2.0), all cycles; conditions: human, in vivo
Description: Tipifarnib was supplied by Johnson & Johnson Pharmaceutical Research and Development as 100 mg tablets. […] Tipifarnib was administered orally twice daily, with intervals of 12 h. Tipifarnib was given on days 1–7 of each 21-day cycle. […] To minimise nephrotoxicity, a pre-and posthydration schedule was implemented on day 1. […] At least three patients were treated at each dose level. If DLT occurred in a patient during cycle 1, three additional patients were enrolled in that cohort. MTD was defined at which 2 or more out of 6 patients (2⩾6) experienced DLT. […] These toxicities were only considered DLT if they occurred during the first cycle of treatment. In the case of grade 3–4 haematological toxicities, the dose of gemcitabine was adjusted in the next cycle based on nadir blood cell counts. Dose adjustments were relative to the starting dose of gemcitabine received in the previous cycle of therapy. If the nadir granulocyte count was >500 μl^−1 and the nadir platelet count >50 000 μl^−1, 100% of the planned gemcitabine dose was administered. […] The administration of tipifarnib was discontinued when haematological DLT occurred. After recovery to at least grade 1, tipifarnib was reinstituted at the same dose level in conjunction with a dose modification of gemcitabine. If a patient continued to experience haematological DLT after one dose modification of gemcitabine, the dose of tipifarnib was decreased with 100 mg b.i.d. If at any time the dose of tipifarnib was to be reduced to <100 mg b.i.d. or if retreatment needed to be delayed >2 weeks after the scheduled restarting of a cycle, the patient went off-study. […] If grade 4 nonhaematological toxicities occurred, patients went off-study. No dose adjustments were made for transaminase elevation unless associated with clinical signs or symptoms. […] If at any time the dose of tipifarnib was to be reduced to <100 mg b.i.d. or if retreatment needed to be delayed >2 weeks after the scheduled restarting of a cycle, the patient went off-study.
Complete patient history, physical examination, haematology, chemistry, urinalysis and electrocardiogram were performed at baseline and before each cycle of treatment. Physical examination, haematology and chemistry were also evaluated on days 8 and 15 of each cycle. Audiometry was performed at baseline and was repeated if clinically indicated. Indicator lesions were measured before start of treatment and every two cycles, as a basis for the assessment of activity of the treatment. All toxicities observed were graded according to the Common Toxicity Criteria ([NCI-CTC, Version 2.0, 1998]).

[4] = clinical; conditions: for AUC(0-t) / Cmax: 750 mg
Description: (§1) In cycle 2, tipifarnib pharmacokinetics was then determined on day 2. For gemcitabine, 2 ml blood samples were taken at 0, 15, 30, 35, 45, 60, 90 min and at 2, 2.5, 24, 32 and 48 h after the start of the 30 min infusion during cycle 1 and at 0, 15, 30, 35, 45, 60, 90 min during cycle 2. Both gemcitabine and its metabolite 2′, 2′ -difluoro-2′-deoxy-uridine (dFdU) were measured in plasma. Of each blood sample, 1 ml was added to 10 μl of tetrahydrouridine (10 mg ml^−1), after which it was centrifuged for 5 min at 4°C and 1500 g. Subsequently, the plasma layer was stored at −20°C until analysis. Additionally, 15 ml blood samples were taken at 0, 1.5, 4 and 24 h after the start of the gemcitabine infusion for the determination of the triphosphate metabolite of gemcitabine (dFdCTP) in WBC ([Sparidans et al, 2002]). Isolation of WBC was performed using a Ficoll density gradient (Pharmacia, Sweden) as described previously ([Heinemann et al, 1998]). All gemcitabine levels were measured using a validated high-performance liquid chromatography (HPLC) method, analogous to the method of [Freeman et al (1995)]. […] Blood samples were immediately centrifuged for 5 min at 4°C and 1500 g. Unbound platinum was obtained by ultrafiltration using the MPS-1 system equipped with 3 kDa YMT membranes (Amicon Division, Danvers, MA, USA). The resulting plasma ultrafiltrate and total plasma were immediately stored at −20°C until analysis by atomic absorption spectrometry (AAS) ([Van Warmerdam et al, 1995]). […] For tipifarnib, 5 ml blood samples were drawn at 0, 1, 2, 3, 5, 8 and 12 h after the morning dose. Immediately after collection, the blood samples were centrifuged for 5 min at 4°C at 1500 g. Separated plasma was stored at −20°C for subsequent drug analysis by a validated HPLC method with UV detection ([Zujewski et al, 2000]).
(§2) The following pharmacokinetic parameters were determined using noncompartmental analysis with WinNonLin software (version 4.1, Pharsight Corporation, Mountain View, CA, USA): the maximum plasma concentration (Cmax), time to maximum plasma concentration (tmax), the elimination half-life (t1/2), the area under the plasma concentration–time curve from 0 to 48 h (AUC0–48) of gemcitabine and dFdU and the AUC0–23 for total and unbound (free) platinum. […] In addition, the AUC0–24 of dFdCTP and the AUA0–23 (area under the adduct curve) ([Schellens et al, 1996]) of Pt-DNA adducts were calculated in WBC. For tipifarnib, Cmax, tmax and AUC0-12 were determined.
(§3) The primary pharmacokinetic parameters of interest for the statistical analyses were Cmax and AUC. Only data from patients who completed the pharmacokinetic blood sampling during the first and second cycles and had no dose reduction were included in the analyses. […] A significance level of 0.05 was used for all analyses. The statistical analyses were performed using the SAS statistical software program (version 6.12; SAS Institute, Inc., Cary, NC, USA).

[5] = tested on: plasma proteins; conditions: cited from earlier work
[6] = dFdCTP in white blood cells with or without tipifarnib; format: in vivo, human; conditions: mononuclear blood cell, adjusted to 750 mg m^−2 gemcitabine
[7] = Plasma pharmacokinetics of tipifarnib (HPLC-UV) as monotherapy or with gemcitabine/cisplatin; format: in vivo, human; conditions: single 200 mg oral dose
Description: as §1, §2, §3

[8] = cited from earlier work
[9] = combination with tipifarnib given for 14 days

SMILES: Nc1ccn([C@@H]2O[C@H](CO)[C@@H](O)C2(F)F)c(=O)n1 [gemcitabine]
MTD [1, 9]: 1000 mg m^−2
Maximum tolerated dose (MTD) ([2]; i.v., in the combination of tipifarnib, gemcitabine (days 1 and 8) and cisplatin (day 1), 21-day cycle (dose level 3)): 1000 mg m^−2
Patients with a dose reduction owing to haematological toxicities [3]: 16%
Patients with a dose reduction owing to nonhaematological toxicities [3]: 13%
AUC(0-t) ([4]; human, in vivo): 6710 ng·h/mL
Cmax ([4]; human, in vivo): 12500 ng/mL
Median tmax ([4]; human, in vivo, iv): 0.50 h
Pharmacokinetic (drug–drug) interaction ([4]; in vivo): no drug–drug interaction
Binding to plasma proteins ([5]; ref Shipley et al, 1992): negligible

SMILES: Nc1ccn([C@@H]2O[C@H](COP(=O)(O)OP(=O)(O)OP(=O)(O)O)[C@@H](O)C2(F)F)c(=O)n1 [dFdCTP]
AUC0–24, mean (s.d.) ([6]; Gem/cis without tipifarnib): 18.3 (40.9) ^i h nanomol mg protein^−1
AUC0–24, mean (s.d.) ([6]; Gem/cis+tipifarnib 100–300 mg): 14.7 (22.9) ^j h nanomol mg protein^−1
Pharmacokinetic (drug–drug) interaction ([4]; cycle 1 (with tipifarnib) vs cycle 2 (without tipifarnib), Cmax and AUC, ANOVA): no drug–drug interaction

AUC(0-t) ([4]; human, in vivo): 237000 ng·h/mL
Cmax ([4]; human, in vivo): 25600 ng/mL
Pharmacokinetic (drug–drug) interaction ([4]; in vivo): significant difference
SMILES: O=c1ccn([C@@H]2O[C@H](CO)[C@@H](O)C2(F)F)c(=O)[nH]1 [dFdU, 2′, 2′ -difluoro-2′-deoxy-uridine]

SMILES: N.N.[Cl][Pt][Cl] [cisplatin]
MTD [1, 9]: 75 mg m^−2

SMILES: Cn1cncc1[C@@](N)(c1ccc(Cl)cc1)c1ccc2c(c1)c(-c1cccc(Cl)c1)cc(=O)n2C [tipifarnib]
AUC(0-t) ([7]; human, tipifarnib as monotherapy (cycle 2 day 2), n=20, read-out: AUC0-12, mean (s.d.)): 2630 ng·h/mL
Cmax ([7]; human, tipifarnib as monotherapy (cycle 2 day 2), n=20, read-out: Cmax, mean (s.d.)): 499 ng/mL
Median tmax ([7]; tipifarnib as monotherapy (cycle 2 day 2), n=20): 3.0 h
AUC0-12, mean (s.d.) ([7]; with gemcitabine 750–1000 mg m^−2 and cisplatin 75–100 mg m^−2 (cycle 1 day 1), n=22): 2971 (2089) ^c h ng ml^−1
Median tmax ([7]; with gemcitabine 750–1000 mg m^−2 and cisplatin 75–100 mg m^−2 (cycle 1 day 1), n=23): 2.1 h
Recommended dose ([1]; continuous tipifarnib with gemcitabine 1000 mg m^−2 on days 1, 8 and 15 every 4 weeks, ref Patnaik et al, 2003): 200 mg b.i.d.
Dose up to which the regimen was safe ([1]; monotherapy, 7 consecutive days, cancer patients, ref Zujewski et al, 2000): at least 300 mg b.i.d.
MTD ([1]; tipifarnib for 14 days with gemcitabine days 1 and 8 and cisplatin day 1): 300 mg b.i.d.
Maximum tolerated dose (MTD) ([2]; oral, days 1–7 of each 21-day cycle, in combination with gemcitabine and cisplatin (dose level 3)): 200 mg b.i.d.
Preclinical interaction of the combination ([8]; tipifarnib combined with cisplatin, ref Skrzat et al, 1999): additive
Preclinical interaction of the combination ([8]; tipifarnib combined with gemcitabine, ref Janssen Research Foundation, 2003): synergy
Patients with a dose reduction owing to haematological toxicities [3]: 10%
Patients with a dose reduction owing to nonhaematological toxicities [3]: 3%
Bound to plasma proteins ([5]; ref Janssen Research Foundation, 2003): 99%
